Each substance was assayed on CD8+ T cells (assay: In vitro T-cell priming assay with aAPCs loaded with peptide/MHC and anti-CD28, pMHC multimer readout). Conditions: in vitro immunogenicity, HLA-A*02 restricted peptides; percentage of positive wells (among evaluable).
Type: cell-based, human
Text: In order to obtain information regarding the immunogenicity of the TUMAPs of the present invention, the inventors performed investigations using an in vitro T-cell priming assay based on repeated stimulations of CD8+ T cells with artificial antigen presenting cells (aAPCs) loaded with peptide/MHC complexes and anti-CD28 antibody.
In order to perform in vitro stimulations by artificial antigen presenting cells loaded with peptide-MHC complex (pMHC) and anti-CD28 antibody, the inventors first isolated CD8+ T cells from fresh HLA-A*02 leukapheresis products via positive selection using CD8 microbeads (Miltenyi Biotec, Bergisch-Gladbach, Germany) of healthy donors obtained from the University clinics Mannheim, Germany, after informed consent. PBMCs and isolated CD8+ lymphocytes were incubated in T-cell medium (TCM) until use consisting of RPMI-Glutamax (Invitrogen, Karlsruhe, Germany) supplemented with 10% heat inactivated human AB serum (PAN-Biotech, Aidenbach, Germany), 100 U/ml Penicillin/100 μg/ml Streptomycin (Cambrex, Cologne, Germany), 1 mM sodium pyruvate (CC Pro, Oberdorla, Germany), 20 μg/ml Gentamycin (Cambrex). 2.5 ng/ml IL-7 (PromoCell, Heidelberg, Germany) and 10 U/ml IL-2 (Novartis Pharma, Nürnberg, Germany) were also added to the TCM at this step. Generation of pMHC/anti-CD28 coated beads, T-cell stimulations and readout was performed in a highly defined in vitro system using four different pMHC molecules per stimulation condition and 8 different pMHC molecules per readout condition.
The purified co-stimulatory mouse IgG2a anti human CD28 Ab 9.3 (Jung et al., 1987) was chemically biotinylated using Sulfo-N-hydroxysuccinimidobiotin as recommended by the manufacturer (Perbio, Bonn, Germany). Beads used were 5.6 μm diameter streptavidin coated polystyrene particles (Bangs Laboratories, Illinois, USA).
pMHC used for positive and negative control stimulations were A*0201/MLA-001 (peptide […] (SEQ ID NO. 289) from modified Melan-A/MART-1) and A*0201/DDX5-001 ([…] from DDX5, SEQ ID NO. 290), respectively.
800.000 beads/200 μl were coated in 96-well plates in the presence of 4×12.5 ng different biotin-pMHC, washed and 600 ng biotin anti-CD28 were added subsequently in a volume of 200 μl. Stimulations were initiated in 96-well plates by co-incubating […] CD8+ T cells with 2×10^5 washed coated beads in 200 μl TCM supplemented with 5 ng/ml IL-12 (PromoCell) for 3 days at 37° C. Half of the medium was then exchanged by fresh TCM supplemented with 80 U/ml IL-2 and incubating was continued for 4 days at 37° C. This stimulation cycle was performed for a total of three times. For the pMHC multimer readout using 8 different pMHC molecules per condition, a two-dimensional combinatorial coding approach was used as previously described (Andersen et al., 2012) with minor modifications encompassing coupling to 5 different fluorochromes. Finally, multimeric analyses were performed by staining the cells with Live/dead near IR dye (Invitrogen, Karlsruhe, Germany), CD8-FITC antibody clone SK1 (BD, Heidelberg, Germany) and fluorescent pMHC multimers. For analysis, a BD LSRII SORP cytometer equipped with appropriate lasers and filters was used. Peptide specific cells were calculated as percentage of total CD8+ cells. Evaluation of multimeric analysis was done using the FlowJo software (Tree Star, Oreg., USA). In vitro priming of specific multimer+ CD8+ lymphocytes was detected by comparing to negative control stimulations.

Substance | Wells positive [%]
4 (VLFGELPAL; listed as Homo sapiens) [compound 4] | + (<20% = +)
9 (SLITGQDLLSV; listed as Homo sapiens) [compound 9] | + (<20% = +)
14 (YTFSGDVQL; listed as Homo sapiens) [compound 14] | + (<20% = +)
17 (GLLPSAESIKL; listed as Homo sapiens) [compound 17] | + (<20% = +)
27 (GLLGKVTSV; listed as Homo sapiens) [compound 27] | + (<20% = +)
29 (KMISAIPTL; listed as Homo sapiens) [compound 29] | + (<20% = +)
34 (TLNTLDINL; listed as Homo sapiens) [compound 34] | ++++ (≥70% = ++++)
35 (VIIKGLEEI; listed as Homo sapiens) [compound 35] | + (<20% = +)
39 (YLEDGFAYV; listed as Homo sapiens) [compound 39] | ++++ (≥70% = ++++)
50 (ILLSVLHQL; listed as Homo sapiens) [compound 50] | + (<20% = +)
66 (AMFPDTIPRV; listed as Homo sapiens) [compound 66] | + (<20% = +)
77 (ALYGNVQQV; listed as Homo sapiens) [compound 77] | + (<20% = +)
89 (SLAETIFIV; listed as Homo sapiens) [compound 89] | + (<20% = +)
97 (KLFEKSTGL; listed as Homo sapiens) [compound 97] | + (<20% = +)
101 (SLLEVNEASSV; listed as Homo sapiens) [compound 101] | + (<20% = +)
102 (GLYPVTLVGV; listed as Homo sapiens) [compound 102] | + (<20% = +)
121 (ALYVQAPTV; listed as Homo sapiens) [compound 121] | + (<20% = +)
157 (ILQDGQFLV; listed as Homo sapiens) [compound 157] | + (<20% = +)
233 (SLFESLEYL; listed as Homo sapiens) [compound 233] | + (<20% = +)
236 (KMSELQTYV; listed as Homo sapiens) [compound 236] | + (<20% = +)
242 (KLQEEIPVL; listed as Homo sapiens) [compound 242] | + (<20% = +)
246 (ALAGIVTNV; listed as Homo sapiens) [compound 246] | + (<20% = +)
254 (ALGDKFLLRV; listed as Homo sapiens) [compound 254] | + (<20% = +)
255 (FLMKNSDLYGA; listed as Homo sapiens) [compound 255] | + (<20% = +)
257 (KLIDHQGLYL; listed as Homo sapiens) [compound 257] | + (<20% = +)
260 (ALNESLVEC; listed as Homo sapiens) [compound 260] | + (<20% = +)
263 (SIIEYLPTL; listed as Homo sapiens) [compound 263] | + (<20% = +)
264 (TLHDQVHLL; listed as Homo sapiens) [compound 264] | + (<20% = +)
267 (YLLDMPLWYL; listed as Homo sapiens) [compound 267] | + (<20% = +)

Same assay, conditions: percentage of positive donors; HLA-A*02 healthy donor CD8+ T cells, three stimulation cycles

Substance | in vitro immunogenicity: donors
288 (SLYKGLLSV; listed as Homo sapiens) [compound 288] | ++++ (≥70% = ++++)

Same assay, conditions: percentage of positive wells; HLA-A*02 healthy donor CD8+ T cells, three stimulation cycles

Substance | in vitro immunogenicity: wells
287 (KIQEILTQV; listed as Homo sapiens) [compound 287] | + (<20% = +)
288 (SLYKGLLSV; listed as Homo sapiens) [compound 288] | ++ (20%-49% = ++)

From US10501522B2, “Peptides and combination of peptides for use in immunotherapy against various tumors” (IMMATICS BIOTECHNOLOGIES GMBH, priority 2015, dated 2019)
